This is an account of results in paper PMC11126915, “iATPSnFR2: A high-dynamic-range fluorescent sensor for monitoring intracellular ATP” (Proceedings of the National Academy of Sciences of the …, 2024).

The test system of experiment [1] is T1, iATPSnFR2.A95A.A119L.
T1 construct: epsilon subunit residues 1-109, linker 1 VLVG, cpSFGFP, linker 2 ICV, residues 110-129, C-terminal HaloTag conjugated to JFX650
Put plainly: Separate head-to-head equilibrium fluorescence titration of 0.2 µM purified sensor HaloTag-JFX650 conjugate with ATP and other nucleoside triphosphates (ex 485 nm, em 535 nm) in Mammalian Cell Imaging Buffer, pH 7.2. The following applies: n = 3; read-out: Binding curve fits, in µM, for ATP, CTP, GTP (binding specificity). As for the experimental part:
(§1) Purified protein was mixed with 1.1 molar equivalents of JFX650 HaloTag ligand and incubated at room temperature for 1 h and then at 4 °C overnight. Excess HaloTag ligand was removed by gel filtration on a PD-10 column (GE Life Sciences) and reconcentrated by ultrafiltration.
(§2) All in vitro assays were performed in Mammalian Cell Imaging Buffer unless otherwise noted. iATPSnFR2 equilibrium measurements (affinity, specificity, pH) were performed with 0.2 µM protein in a Tecan Spark fluorimeter with 20 nm bandpass windows and excitation at 485 nm and emission at 535 nm.
(§3) [NTP], µM [NTP], µM [NTP], µM
(§4) Supplementary Figure 1d. In vitro characterization: binding specificity. iATPSnFR2 affinity for ATP
(§5) and other nucleoside triphosphates. Three variants of iATPSnFR2.HaloTag-JFX650 titrated with ATP
(§6) and other NTPs, head-to-head. S29W.A95K (left); A95K (center); A95A.A119L (right). ATP (black),
(§7) CTP (cyan), GTP (grey), TTP (purple). Binding curve fits, in µM, for ATP, CTP, GTP are S29W.A95K:
(§8) Error bars are s.d. of three technical replicates.

The subject of experiment [2] is T2, iATPSnFR2.A95K.
T2 construct: epsilon subunit residues 1-109, linker 1 VLVG, cpSFGFP, linker 2 ICV, residues 110-129, C-terminal HaloTag conjugated to JFX650
The experiment is described as above. Particulars: n = 3; read-out: Binding curve fits, in µM, for ATP, CTP, GTP (binding specificity). As for the experimental part: as §1, §2, §3, §4, §5, §6, §7, §8

For experiment [3], the system named is T3, iATPSnFR2.S29W.A95K.
T3 construct: epsilon subunit residues 1-109, linker 1 VLVG, cpSFGFP, linker 2 ICV, residues 110-129, C-terminal HaloTag conjugated to JFX650
Described as above. Particulars: n = 3; read-out: Binding curve fits, in µM, for ATP, CTP, GTP (binding specificity). As for the experimental part:
as §1, §2, §3, §4, §5, §6, §7, §8

Experiment [4] has as its system T1, iATPSnFR2.A95A.A119L. Put plainly: Equilibrium fluorescence titration of 0.2 µM purified sensor HaloTag-JFX650 conjugate with ATP and ADP head-to-head (ex 485 nm, em 535 nm) in Mammalian Cell Imaging Buffer (20 mM HEPES, 119 mM NaCl, 2.5 mM KCl, 2 mM MgCl2, 2 mM CaCl2, pH 7.2). The following applies: n = 3; read-out: Binding curve fits, in µM, for ATP and ADP (affinity). As for the experimental part:
as §1, §2
(§9) Supplementary Figure 1a. In vitro characterization: ATP & ADP affinity. Three variants of iATPSnFR2.HaloTag-JFX650 titrated with ATP (black) and ADP (grey), head-to-head. iATPSnFR2.S29W.A95K (left); iATPSnFR2.A95K (center); iATPSnFR2.A95A.A119L (right). Binding curve fits, in µM, for ATP and ADP are S29W.A95K: 4 µM, 400 µM. A95K: 16 µM, 780 µM.
(§10) A95A.A119L: 530 µM, 5300 µM. Error bars are s.d. of three technical replicates. […]

The test system of experiment [5] is T2, iATPSnFR2.A95K. The description is as above. Particulars: n = 3; read-out: Binding curve fits, in µM, for ATP and ADP (affinity). As for the experimental part: as §1, §2, §9, §10
For experiment [6], the system named is T3, iATPSnFR2.S29W.A95K. The experiment is described as above. The following applies: n = 3; read-out: Binding curve fits, in µM, for ATP and ADP (affinity). As for the experimental part:
as §1, §2, §9, §10

For experiment [7], the system named is axonal mitochondria of primary hippocampal neurons. Put plainly: mitochondrial matrix ATP imaging in axonal mitochondria of primary neurons. Particulars: 10 µM, perfusion; KA in 5 mM glucose; oligomycin in 1.25 mM lactate + 1.25 mM pyruvate. In kind it is cell-based, Sprague-Dawley rats. An excerpt: iATPSnFR2.HaloTag variants were subcloned by restriction digest into an AAV vector with a CAG promoter via BglII/PstI digest from the bacterial expression vector. The pAAV.CAG vector includes an extra serine after the initial methionine and lacks a polyhistidine tag. To target the sensor to the mitochondrial matrix, four repeats of COX8(mito) leader sequence ([…]) separated by spacer (IHSLPPEGPW) were introduced at the N terminus of iAPTSnFR2(A95A/A119L). HaloTag was incorporated at the N-terminal of iATPSnFR2.A95A.A119L separated by a linker (LQSTGSGNAVGQDTQER). […]
(§11) Coverslips were loaded onto a custom chamber ([32]), mounted on a Zeiss inverted microscope and perfused at ~100 µL min^–1 with Tyrode’s solution containing: 119 mM NaCl, 2.5 mM KCl, 5 mM glucose, 50 mM HEPES, 2 mM CaCl2, 2 mM MgCl2, 50 µM DL-2-amino-5-phosphonovaleric acid (AP5), and 10 µM 6-cyano-7-nitroquinoxaline-2,3-dione (CNQX), adjusted to pH 7.4. […] Fluorescence was stimulated with OBIS 488 nm LX or OBIS 637 nm LS lasers (Coherent) passing through a laser speckle reducer (LSR 3005 at 12° diffusion angle, Optotune). […]
Time series of imaging pairs (HaloTag and iATPSnFR2) were split into two independent image series using a custom-written Fiji routine to facilitate analysis. […] Synaptic boutons signals were analyzed using homemade script routines in Igor-pro v6.3.7.2 (WaveMetrics, Lake Oswego, OR, USA). […]

Experiment [8] relates to nerve terminals of dissociated hippocampal neurons. Description: ATP depletion in nerve terminals during AP firing. The class given is cell-based, Sprague-Dawley rats. The following applies: 5 mM glucose + 10 µM KA, 6 s at 50 Hz. As for the experimental part:
(§12) Primary neuronal cultures were prepared as previously described ([31]). Hippocampal CA1 to CA3 regions were dissected, dissociated, and plated onto poly-L-ornithine-coated coverslips. Plating media consisted of the minimal essential medium, 0.5% glucose, insulin (0.024 g/L), transferrin ([…]), GlutaMAX 1%, N-21 (2%), and fetal bovine serum (10%). After 1 to 3 days in vitro (DIV), cells were fed and maintained in media with the following modifications: cytosine β-D-arabinofuranoside (4 µM) and FBS 5%. Cultures were incubated at 37 °C in a 95% air/5% CO2 incubator. Calcium phosphate–mediated gene transfer was performed on DIV 6 to 8, and neurons were used for experiments on DIV 14 to 21.
as §11

For experiment [9], the system named is synaptic boutons of hippocampal neurons. Description: spontaneous ATP depletion in synaptic boutons (synaptophysin-targeted iATPSnFR2). The class given is cell-based, Sprague-Dawley rats. Particulars: 5 mM glucose + 10 µM KA + 0.3 µM TTX, iATPSnFR2.A95A.A119L.HaloTag-JFX650. As for the experimental part:
as §12, §11

The next experiment deals with LMTK- cells. Description: green:red ratio imaging of fibroblasts expressing iATPSnFR2-HaloTag variants. In kind it is cell-based, mouse. The following applies: 10 mM 2dOG replacing 10 mM glucose. As for the experimental part: (§13) Rho° and the parental LMTK- cells were maintained in T-75 flasks with Dulbecco’s Modified Eagle's Medium (DMEM) + 10% Fetal Bovine Serum (FBS) + 1 mM pyruvate + 5 µM uridine. Two days prior to transfection, they were split into separate rows of a 24-well plate (half Rho°, half LMTK) at 0.6 and 0.1 million cells per well, respectively. Cells were transfected with iATPSnFR2.HaloTag variants by lipofectamine (0.5 µg DNA + 2 µL lipofectamine 2,000 per well) for 4 to 6 h in DMEM lacking FBS or antibiotics. Transfection medium was replaced with fresh DMEM + 10% FBS + penicillin/streptomycin overnight. Cells were labeled with JFX650 HaloTag ligand by adding the fluorophore to 100 nM for an hour. Cells were washed with Mammalian Cell Imaging Buffer and imaged in a Cytation 5 imaging reader (BioTek) over the course of about 2 h. After about 20 min of imaging to establish a baseline fluorescence, the culture plate was removed from the instrument, and buffer was replaced with the query buffer. The equilibration buffer contained 10 mM glucose, and the query buffers contained 10 mM 2dOG.
(§14) Images were background subtracted and aligned for movement artifacts with the Gen5 software package that controls the Cytation 5 instrument. Images were assembled as TIF stacks and imported into ImageJ. […] Those ROIs were used to determine the ratio of green to red fluorescence for each well. […]

For another experiment, the system named is Rho° cells. Described as above. In kind it is cell-based, mouse. Particulars: 10 mM 2dOG replacing 10 mM glucose. As for the experimental part: as §13, §14

As for `Nc1ccn([C@@H]2O[C@H](COP(=O)(O)OP(=O)(O)OP(=O)(O)O)[C@@H](O)[C@H]2O)c(=O)n1` [CTP, cytidine triphosphate], the Kd with iATPSnFR2.A95A.A119L [1] was ~10000 µM; with iATPSnFR2.A95K [2], 100 µM; with iATPSnFR2.S29W.A95K [3], 50 µM.

For `Nc1nc2c(ncn2[C@@H]2O[C@H](COP(=O)(O)OP(=O)(O)OP(=O)(O)O)[C@@H](O)[C@H]2O)c(=O)[nH]1` [GTP, guanosine triphosphate], the Kd in the experiment with iATPSnFR2.A95A.A119L [1] is ~10000 µM; with iATPSnFR2.A95K [2] it was 1500 µM; in the experiment on iATPSnFR2.S29W.A95K [3] it was 430 µM.

With `Nc1ncnc2c1ncn2[C@@H]1O[C@H](COP(=O)(O)OP(=O)(O)O)[C@@H](O)[C@H]1O` [ADP, adenosine diphosphate], the Kd was found to be 5300 µM in the experiment with iATPSnFR2.A95A.A119L [4], 780 µM with iATPSnFR2.A95K [5] and 400 µM in the experiment with iATPSnFR2.S29W.A95K [6].

Consider `Nc1ncnc2c1ncn2[C@@H]1O[C@H](COP(=O)(O)OP(=O)(O)OP(=O)(O)O)[C@@H](O)[C@H]1O` [ATP, adenosine triphosphate], for which the Kd in the experiment with iATPSnFR2.A95A.A119L [4] was 530 µM; in the experiment on iATPSnFR2.A95K [5], 16 µM; with iATPSnFR2.S29W.A95K [6], 4 µM; with iATPSnFR2.A95A.A119L [1], 750 µM; in the experiment on iATPSnFR2.A95K [2] it was 30 µM; in the experiment with iATPSnFR2.S29W.A95K [3], 20 µM.

For the compound `CC[C@H]1/C=C/C=C/C[C@@H](C)[C@H](O)[C@@](C)(O)C(=O)[C@@H](C)[C@H](O)[C@@H](C)C(=O)[C@@H](C)[C@H](O)[C@@H](C)/C=C/C(=O)O[C@@H]2[C@H](C)[C@H](CC1)O[C@]1(CC[C@H](C)[C@H](C[C@@H](C)O)O1)[C@H]2C` [oligomycin], the “effect on mitochondrial ATP signal (mito-iATPSnFR2.HaloTag)” value in experiment [7] was “further collapse of the ATP signal”.

Regarding `CC(C)[C@H]1CC[C@@]2(CO2)[C@H]2C(=O)OCC(C(=O)O)=C[C@H]12` [KA, koningic acid], the “effect on iATPSnFR2 fluorescence during AP stimulation” value in [8] is “even greater decrease in fluorescence that did not recover”. Further, in [7], the “effect on mitochondrial ATP signal (mito-iATPSnFR2.HaloTag)” value was “rapid drop in the ATP signal”. In [9], the “effect on average green to red fluorescence ratio in boutons” value is reported as “gradually declined over a 5 to 10 min period”.

Turning to `O=CC[C@@H](O)[C@H](O)[C@H](O)CO` [2dOG, 2-deoxyglucose], the “effect on green fluorescence of iATPSnFR2 variants” value with LMTK- cells is on record as “decreased fluorescence only in those expressing the weakest affinity variant”; with Rho° cells it was “green fluorescence rapidly dropped”.
